Reference: patent US10633366B2, “Antibacterial compounds” (AZIENDE CHIMICHE RIUNITE ANGELINI FRANCESCO A.C.R.A.F. …, priority 2016, dated 2020)
Where two headings read alike, the source gives them in different places.

Key:
Assay in all cases: biochemical
S. aureus DNA gyrase = S. aureus DNA gyrase (Staphylococcus aureus, UniProt P0A0K8+P20831); details: for IC50: IC50 DNA gyrase; for inhibition at 50 µM: read-out: % inhibition DNA gyrase
[1] = target: S. aureus Topoisomerase IV (Staphylococcus aureus, UniProt P0C1S7+P0C1U9); details: for IC50: IC50 Topo IV; for inhibition at 50 µM: read-out: % inhibition Topo IV
E. coli Topoisomerase IV = E. coli Topoisomerase IV (Escherichia coli, UniProt P0AFI2+P20083); details: for IC50: IC50 Topo IV; for inhibition at 50 µM: read-out: % inhibition Topo IV
E. coli DNA gyrase = E. coli DNA gyrase (Escherichia coli, UniProt P0AES4+P0AES6); details: for IC50: IC50 DNA gyrase; for inhibition at 50 µM: read-out: % inhibition DNA gyrase
[2] = S. aureus, compound conc. 50 μM, percent of inhibition versus positive control, n/a = not active

Sequence of E. coli Topoisomerase IV (P0AFI2 whole entry): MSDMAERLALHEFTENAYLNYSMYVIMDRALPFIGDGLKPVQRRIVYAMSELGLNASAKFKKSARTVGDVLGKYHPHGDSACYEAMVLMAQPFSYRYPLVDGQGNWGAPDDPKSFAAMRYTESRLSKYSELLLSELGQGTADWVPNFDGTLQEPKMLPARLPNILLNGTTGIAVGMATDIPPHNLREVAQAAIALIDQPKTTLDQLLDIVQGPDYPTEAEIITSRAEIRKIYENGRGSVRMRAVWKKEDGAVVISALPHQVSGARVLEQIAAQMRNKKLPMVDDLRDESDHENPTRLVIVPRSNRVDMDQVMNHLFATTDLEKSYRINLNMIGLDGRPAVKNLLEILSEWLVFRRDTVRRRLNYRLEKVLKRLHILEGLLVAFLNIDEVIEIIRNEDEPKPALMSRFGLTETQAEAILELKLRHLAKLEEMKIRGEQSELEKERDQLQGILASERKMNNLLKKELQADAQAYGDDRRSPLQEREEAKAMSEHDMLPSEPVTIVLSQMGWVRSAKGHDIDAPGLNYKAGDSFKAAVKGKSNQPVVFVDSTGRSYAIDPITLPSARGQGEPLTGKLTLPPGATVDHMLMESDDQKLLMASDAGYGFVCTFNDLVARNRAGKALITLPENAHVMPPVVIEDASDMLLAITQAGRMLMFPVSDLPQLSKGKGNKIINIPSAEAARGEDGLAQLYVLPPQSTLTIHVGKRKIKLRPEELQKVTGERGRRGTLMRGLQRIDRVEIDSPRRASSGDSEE
Sequence of E. coli Topoisomerase IV (P20083 whole entry): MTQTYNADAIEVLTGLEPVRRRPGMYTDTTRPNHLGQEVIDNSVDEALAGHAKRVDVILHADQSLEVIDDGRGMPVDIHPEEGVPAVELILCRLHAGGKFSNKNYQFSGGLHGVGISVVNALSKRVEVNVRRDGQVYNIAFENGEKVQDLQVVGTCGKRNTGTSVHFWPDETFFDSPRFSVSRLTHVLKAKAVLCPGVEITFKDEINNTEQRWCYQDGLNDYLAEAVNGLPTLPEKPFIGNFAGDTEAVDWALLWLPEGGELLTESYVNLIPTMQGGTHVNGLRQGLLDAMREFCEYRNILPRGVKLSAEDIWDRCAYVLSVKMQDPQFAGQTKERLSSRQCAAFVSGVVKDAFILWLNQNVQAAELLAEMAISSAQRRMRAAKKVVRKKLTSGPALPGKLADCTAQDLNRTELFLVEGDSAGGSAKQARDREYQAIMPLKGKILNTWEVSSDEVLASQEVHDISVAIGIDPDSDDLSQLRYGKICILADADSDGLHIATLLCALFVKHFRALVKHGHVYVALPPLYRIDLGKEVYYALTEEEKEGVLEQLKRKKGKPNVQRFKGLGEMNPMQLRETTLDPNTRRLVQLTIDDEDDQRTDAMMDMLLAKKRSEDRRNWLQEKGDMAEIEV
Sequence of E. coli DNA gyrase (P0AES4 whole entry, one chain of several): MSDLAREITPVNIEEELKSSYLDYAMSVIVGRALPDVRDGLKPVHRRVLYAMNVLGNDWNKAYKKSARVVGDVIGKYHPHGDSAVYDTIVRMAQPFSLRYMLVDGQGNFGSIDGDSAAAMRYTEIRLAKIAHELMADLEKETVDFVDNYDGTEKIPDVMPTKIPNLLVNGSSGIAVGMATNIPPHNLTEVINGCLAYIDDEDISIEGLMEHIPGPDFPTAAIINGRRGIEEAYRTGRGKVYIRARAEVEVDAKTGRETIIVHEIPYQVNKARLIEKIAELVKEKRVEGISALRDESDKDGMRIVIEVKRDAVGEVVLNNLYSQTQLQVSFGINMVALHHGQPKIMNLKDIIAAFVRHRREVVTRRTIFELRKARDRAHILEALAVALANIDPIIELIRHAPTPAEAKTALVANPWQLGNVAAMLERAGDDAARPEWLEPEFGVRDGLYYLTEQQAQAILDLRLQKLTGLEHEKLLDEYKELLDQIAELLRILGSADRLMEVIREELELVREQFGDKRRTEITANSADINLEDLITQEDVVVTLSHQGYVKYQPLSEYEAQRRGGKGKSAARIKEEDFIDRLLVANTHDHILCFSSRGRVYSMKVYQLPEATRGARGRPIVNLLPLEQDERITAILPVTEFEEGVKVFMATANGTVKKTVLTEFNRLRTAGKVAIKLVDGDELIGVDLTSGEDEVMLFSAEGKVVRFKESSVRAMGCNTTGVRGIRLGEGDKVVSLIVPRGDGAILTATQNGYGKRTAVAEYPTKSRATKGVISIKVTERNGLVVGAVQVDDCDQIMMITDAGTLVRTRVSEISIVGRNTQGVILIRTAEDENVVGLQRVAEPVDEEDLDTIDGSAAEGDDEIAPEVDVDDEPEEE
Sequence of S. aureus Topoisomerase IV (P0C1U9 whole entry): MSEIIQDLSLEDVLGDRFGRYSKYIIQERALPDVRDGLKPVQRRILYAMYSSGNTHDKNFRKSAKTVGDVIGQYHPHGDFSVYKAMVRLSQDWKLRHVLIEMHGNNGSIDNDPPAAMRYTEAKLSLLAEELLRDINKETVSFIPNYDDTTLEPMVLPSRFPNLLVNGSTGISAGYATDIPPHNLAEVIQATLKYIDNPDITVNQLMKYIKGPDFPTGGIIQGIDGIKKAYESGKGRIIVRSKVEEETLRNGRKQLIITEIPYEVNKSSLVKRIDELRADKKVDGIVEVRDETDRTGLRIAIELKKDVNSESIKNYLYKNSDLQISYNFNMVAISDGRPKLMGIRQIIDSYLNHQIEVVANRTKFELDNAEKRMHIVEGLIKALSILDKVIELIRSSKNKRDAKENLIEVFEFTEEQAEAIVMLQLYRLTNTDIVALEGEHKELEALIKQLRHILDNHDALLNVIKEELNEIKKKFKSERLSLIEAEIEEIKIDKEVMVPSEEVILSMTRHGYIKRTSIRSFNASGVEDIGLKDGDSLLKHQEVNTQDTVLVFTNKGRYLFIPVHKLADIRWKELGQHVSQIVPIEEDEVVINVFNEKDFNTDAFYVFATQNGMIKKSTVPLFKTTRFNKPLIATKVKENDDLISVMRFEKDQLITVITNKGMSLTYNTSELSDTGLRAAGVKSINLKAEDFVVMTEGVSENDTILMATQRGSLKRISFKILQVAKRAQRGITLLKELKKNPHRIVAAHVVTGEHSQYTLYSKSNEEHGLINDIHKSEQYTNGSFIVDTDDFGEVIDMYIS
Sequence of S. aureus Topoisomerase IV (P0C1S7 whole entry): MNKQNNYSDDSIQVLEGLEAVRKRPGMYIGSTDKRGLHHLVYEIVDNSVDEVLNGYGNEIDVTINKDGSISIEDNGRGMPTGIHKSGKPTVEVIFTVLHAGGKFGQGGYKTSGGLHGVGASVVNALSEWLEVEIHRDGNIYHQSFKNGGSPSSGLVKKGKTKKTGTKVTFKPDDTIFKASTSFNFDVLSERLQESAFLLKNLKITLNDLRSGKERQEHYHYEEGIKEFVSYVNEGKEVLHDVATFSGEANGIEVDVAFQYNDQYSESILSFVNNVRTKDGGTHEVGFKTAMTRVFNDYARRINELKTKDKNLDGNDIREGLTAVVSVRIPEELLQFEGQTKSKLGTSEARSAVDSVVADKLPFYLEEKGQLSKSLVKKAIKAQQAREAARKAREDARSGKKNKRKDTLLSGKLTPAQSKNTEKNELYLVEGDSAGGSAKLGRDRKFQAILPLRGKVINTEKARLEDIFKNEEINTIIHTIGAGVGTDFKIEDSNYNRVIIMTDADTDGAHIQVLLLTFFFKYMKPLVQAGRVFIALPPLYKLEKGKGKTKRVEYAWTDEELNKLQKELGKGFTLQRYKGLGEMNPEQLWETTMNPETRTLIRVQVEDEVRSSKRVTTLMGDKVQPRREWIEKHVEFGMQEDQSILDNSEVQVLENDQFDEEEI

SMILES | IC50 (S. aureus DNA gyrase) [nM] | IC50 [1] [nM] | IC50 (E. coli Topoisomerase IV) [nM] | IC50 (E. coli DNA gyrase) [nM] | inhibition at 50 µM (S. aureus DNA gyrase) [%] | inhibition at 50 µM [1, 2] [%] | inhibition at 50 µM (E. coli Topoisomerase IV) [%] | inhibition at 50 µM (E. coli DNA gyrase) [%] | inhibition at 50 µM [1] [%]
O=C1COc2ncc(F)cc2N1[C@H]1CC[C@H](NCc2cc3c(=O)oc4cccnc4c3[nH]2)CC1 [Compound 301] | 720 | 70300 | 430 | 460 |  |  |  |  | 
N#Cc1ccc2ccc(=O)n([C@H]3CC[C@H](NCc4cc5c(=O)oc6ccc(F)cc6c5[nH]4)CC3)c2c1 [Compound 206, 1-(trans-4-{[(8-fluoro-4-oxo-1,4-dihydro[1]benzopyrano[4,3-b]pyrrol-2-yl)methyl]amino}cyclohexyl)-2-oxo-1,2-dihydroquinoline-7-carbonitrile] | 130 | < 100 | < 100 | 50 | 100 | 100 | 100 | 100 | 
COc1ccc2ncc(=O)n([C@H]3CC[C@H](NCc4cc5c(=O)oc6ccc(F)cc6c5[nH]4)CC3)c2c1 [Compound 208, 8-fluoro-2-({[trans-4-(7-methoxy-2-oxoquinoxalin-1(2H)-yl)cyclohexyl]amino}methyl)[1]benzopyrano[4,3-b]pyrrol-4(1H)-one] | 110 | 130 | 270 | 80 | 100 | 100 | 100 | 100 | 
N#Cc1cnc2c(c1)N([C@H]1CC[C@H](NCc3cc4c(=O)oc5ccc(F)cc5c4[nH]3)CC1)C(=O)CO2 [Compound 214, 1-(trans-4-{[(8-fluoro-4-oxo-1,4-dihydro[1]benzopyrano[4,3-b]pyrrol-2-yl)methyl]amino}cyclohexyl)-2-oxo-2,3-dihydro-1H-pyrido[2,3-b][1,4]oxazine-7-carbonitrile] | 160 | 570 | 1030 | 120 | 100 | 100 | 100 | 99 | 
O=c1cc(NCC(O)C2CCN(C[C@@H]3Cn4c(=O)ccc5ncc(=O)n3c54)CC2)c2cc(F)ccc2o1 (mixture of isomers) [Compound 343, (2R)-2-[(4-{2-[(6-fluoro-2-oxo-2H-1-benzopyran-4-yl)amino]-1-hydroxyethyl}piperidin-1-yl)methyl]-1,2-dihydro-3H,8H-2a,5,8a-triazaacenaphthylene-3,8-dione] | 1980 | 8730 | 1270 | 910 |  |  |  |  | 
O=C1COc2ncc(F)cc2N1[C@H]1CC[C@H](NCCNc2cc(=O)oc3ccc(F)cc23)CC1 [Compound 354, 7-fluoro-1-[trans-4-({2-[(6-fluoro-2-oxo-2H-1-benzopyran-4-yl)amino]ethyl}amino)cyclohexyl]-1H-pyrido[2,3-b][1,4]oxazin-2(3H)-one] | 350 | 920 | 180 | 470 |  |  |  |  | 
COc1ccc2ncc(=O)n(C3CCN(CCc4cc5c(=O)oc6ccc(F)cc6c5[nH]4)CC3)c2n1 [Compound 197, 8-fluoro-2-{2-[4-(6-methoxy-3-oxopyrido[2,3-b]pyrazin-4(3H)-yl)piperidin-1-yl]ethyl}[1]benzopyrano[4,3-b]pyrrol-4(1H)-one] |  |  |  |  | 90 |  | 63 | 87 | 79
N#Cc1cnc2c(c1)N([C@H]1CC[C@@H](NCc3cc4c(=O)oc5ccc(F)cc5c4[nH]3)CC1)C(=O)CO2 [Compound 215, 1-(cis-4-{[(8-fluoro-4-oxo-1,4-dihydro[1]benzopyrano[4,3-b]pyrrol-2-yl)methyl]amino}cyclohexyl)-2-oxo-2,3-dihydro-1H-pyrido[2,3-b][1,4]oxazine-7-carbonitrile] |  |  |  |  | 96 |  |  | 69 | 
Fc1ccc2ccnc(N3CCC(NCc4c[nH]c(-c5ccccn5)n4)CC3)c2c1 [Compound 160, 1-(7-fluoroisoquinolin-1-yl)-N-{[2-(pyridin-2-yl)-1H-imidazol-4-yl]methyl}piperidin-4-amine] | 20800 |  | 21500 |  | 65 |  | 60 | 50 | 
